Data on one molecule can be found in article PMC3467072 (Nucleic Acids Research, 2012).

This assay concerns Rv3066–IR1. Type of assay: binding, Mycobacterium tuberculosis. The conditions noted are these: 1 µM ethidium versus no ethidium.

The structures appear in SMILES notation.

Take `CC[n+]1c(-c2ccccc2)c2cc(N)ccc2c2ccc(N)cc21` [ethidium, ethidium bromide]: the “Weakening of the binding affinity between Rv3066 and IR1” value was determined as 2.4 times.
